In ChEMBL document CHEMBL5230108, “Computational methods-guided design of modulators targeting protein-protein interactions (PPIs)” (Eur J Med Chem, 2020):
Numbered stars: 1 amine (or outer) side, 2 acyl side, 3 side chain; on linkers, the order of the positions; unused ones are H or OH. Square brackets hold non-standard residues; d marks the D form. Peptide text beside a SMILES is read from it. * marks the point of attachment. ξ: configuration not given here. X1 = O=C(O)c1cc(NC(=S)*)ccc1-c1c2ccc(=O)cc-2oc2cc(O)ccc12; N(2-(2-PhOPh)Et)Gly = O=C(O)CNCCc1ccccc1Oc1ccccc1; Gly(N-3,5-(OMe)2-Ph) = COc1cc(NCC(=O)O)cc(OC)c1; X2 = COc1ccc([C@H](C)N(CC(=O)[*:2])[*:1])cc1; Ala(cPent) = N[C@@H](CC1CCCC1)C(=O)O; N((CH2)3OiPr)Gly = CC(C)OCCCNCC(=O)O; Cbz = O=C(OCc1ccccc1)*; ξI = CCC(C)C(N)C(=O)O; βAla = NCCC(=O)O; ξA = CC(N)C(=O)O

How the values were obtained:
[1] = Binding affinity to APC/ASEF (unknown origin) protein protein interaction assessed as dissociation constant by ITC analysis; set-up: species or system Homo sapiens
[2] = target: Tumour suppressor protein p53/Mdm4 (Homo sapiens, UniProt O15151+P04637); experiment: Inhibition of human DMX-p53 protein-protein interaction […]; format: protein assay
[3] = target: Catenin beta-1/Transcription factor 7 (Homo sapiens, UniProt P35222+P36402); experiment: Inhibition of N-terminal beta-catenin/full length myc-tagged TCF (unknown origin) trasfected in HEK293 cells measured for 48 hrs by; format: cell-based
[4] = Inhibition of full length GST-tagged Wnt (unknown origin) by luciferase assay; set-up: species or system Homo sapiens
Heat shock protein HSP90 = Heat shock protein HSP90 (Homo sapiens, UniProt P07900+P08238); experiment: Binding affinity to HSP90 (unknown origin) assessed as dissociation constant; format: protein assay
[5] = target: Histone-lysine N-methyltransferase 2A (Homo sapiens, UniProt Q03164); experiment: Competitive binding affinity to full length wild type MLL (unknown origin)
[6] = target: Adenomatous polyposis coli protein (Homo sapiens, UniProt P25054); experiment: Binding affinity to APC (unknown origin) assessed as inhibition constant by ITC analysis
[7] = target: Catenin beta-1/Transcription factor 7 (Homo sapiens) (UniProt P36402+P35222); experiment: Binding affinity to beta-catenin/Tcf (unknown origin) assessed as gibbs free energy change; format: protein assay

Tumour suppressor protein p53/Mdm4, sequence (P04637 whole entry): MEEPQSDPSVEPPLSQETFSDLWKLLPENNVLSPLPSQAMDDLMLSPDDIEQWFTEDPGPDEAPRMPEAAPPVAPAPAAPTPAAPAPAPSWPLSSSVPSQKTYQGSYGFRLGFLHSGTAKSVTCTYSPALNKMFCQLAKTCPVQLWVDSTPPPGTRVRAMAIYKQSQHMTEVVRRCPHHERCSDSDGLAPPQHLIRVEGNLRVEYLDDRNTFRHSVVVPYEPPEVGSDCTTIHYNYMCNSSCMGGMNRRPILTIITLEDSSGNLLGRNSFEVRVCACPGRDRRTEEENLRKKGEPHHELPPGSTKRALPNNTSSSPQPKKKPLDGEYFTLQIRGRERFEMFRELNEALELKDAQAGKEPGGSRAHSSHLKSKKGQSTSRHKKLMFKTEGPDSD
Tumour suppressor protein p53/Mdm4, sequence (O15151 whole entry): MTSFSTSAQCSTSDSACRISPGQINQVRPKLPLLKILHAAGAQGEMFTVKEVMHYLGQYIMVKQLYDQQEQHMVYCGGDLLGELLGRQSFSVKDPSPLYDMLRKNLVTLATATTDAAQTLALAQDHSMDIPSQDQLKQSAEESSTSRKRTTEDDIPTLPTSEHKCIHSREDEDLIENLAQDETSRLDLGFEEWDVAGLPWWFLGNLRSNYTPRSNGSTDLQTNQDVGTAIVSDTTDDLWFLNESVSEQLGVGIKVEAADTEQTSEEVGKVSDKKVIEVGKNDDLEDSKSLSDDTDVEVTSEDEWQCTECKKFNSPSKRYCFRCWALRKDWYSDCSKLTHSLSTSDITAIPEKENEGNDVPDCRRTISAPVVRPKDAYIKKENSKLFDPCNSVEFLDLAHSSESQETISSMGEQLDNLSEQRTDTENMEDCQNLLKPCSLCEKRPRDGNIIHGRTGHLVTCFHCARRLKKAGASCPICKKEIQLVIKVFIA
Histone-lysine N-methyltransferase 2A, sequence (Q03164 1-2718 limits assumed): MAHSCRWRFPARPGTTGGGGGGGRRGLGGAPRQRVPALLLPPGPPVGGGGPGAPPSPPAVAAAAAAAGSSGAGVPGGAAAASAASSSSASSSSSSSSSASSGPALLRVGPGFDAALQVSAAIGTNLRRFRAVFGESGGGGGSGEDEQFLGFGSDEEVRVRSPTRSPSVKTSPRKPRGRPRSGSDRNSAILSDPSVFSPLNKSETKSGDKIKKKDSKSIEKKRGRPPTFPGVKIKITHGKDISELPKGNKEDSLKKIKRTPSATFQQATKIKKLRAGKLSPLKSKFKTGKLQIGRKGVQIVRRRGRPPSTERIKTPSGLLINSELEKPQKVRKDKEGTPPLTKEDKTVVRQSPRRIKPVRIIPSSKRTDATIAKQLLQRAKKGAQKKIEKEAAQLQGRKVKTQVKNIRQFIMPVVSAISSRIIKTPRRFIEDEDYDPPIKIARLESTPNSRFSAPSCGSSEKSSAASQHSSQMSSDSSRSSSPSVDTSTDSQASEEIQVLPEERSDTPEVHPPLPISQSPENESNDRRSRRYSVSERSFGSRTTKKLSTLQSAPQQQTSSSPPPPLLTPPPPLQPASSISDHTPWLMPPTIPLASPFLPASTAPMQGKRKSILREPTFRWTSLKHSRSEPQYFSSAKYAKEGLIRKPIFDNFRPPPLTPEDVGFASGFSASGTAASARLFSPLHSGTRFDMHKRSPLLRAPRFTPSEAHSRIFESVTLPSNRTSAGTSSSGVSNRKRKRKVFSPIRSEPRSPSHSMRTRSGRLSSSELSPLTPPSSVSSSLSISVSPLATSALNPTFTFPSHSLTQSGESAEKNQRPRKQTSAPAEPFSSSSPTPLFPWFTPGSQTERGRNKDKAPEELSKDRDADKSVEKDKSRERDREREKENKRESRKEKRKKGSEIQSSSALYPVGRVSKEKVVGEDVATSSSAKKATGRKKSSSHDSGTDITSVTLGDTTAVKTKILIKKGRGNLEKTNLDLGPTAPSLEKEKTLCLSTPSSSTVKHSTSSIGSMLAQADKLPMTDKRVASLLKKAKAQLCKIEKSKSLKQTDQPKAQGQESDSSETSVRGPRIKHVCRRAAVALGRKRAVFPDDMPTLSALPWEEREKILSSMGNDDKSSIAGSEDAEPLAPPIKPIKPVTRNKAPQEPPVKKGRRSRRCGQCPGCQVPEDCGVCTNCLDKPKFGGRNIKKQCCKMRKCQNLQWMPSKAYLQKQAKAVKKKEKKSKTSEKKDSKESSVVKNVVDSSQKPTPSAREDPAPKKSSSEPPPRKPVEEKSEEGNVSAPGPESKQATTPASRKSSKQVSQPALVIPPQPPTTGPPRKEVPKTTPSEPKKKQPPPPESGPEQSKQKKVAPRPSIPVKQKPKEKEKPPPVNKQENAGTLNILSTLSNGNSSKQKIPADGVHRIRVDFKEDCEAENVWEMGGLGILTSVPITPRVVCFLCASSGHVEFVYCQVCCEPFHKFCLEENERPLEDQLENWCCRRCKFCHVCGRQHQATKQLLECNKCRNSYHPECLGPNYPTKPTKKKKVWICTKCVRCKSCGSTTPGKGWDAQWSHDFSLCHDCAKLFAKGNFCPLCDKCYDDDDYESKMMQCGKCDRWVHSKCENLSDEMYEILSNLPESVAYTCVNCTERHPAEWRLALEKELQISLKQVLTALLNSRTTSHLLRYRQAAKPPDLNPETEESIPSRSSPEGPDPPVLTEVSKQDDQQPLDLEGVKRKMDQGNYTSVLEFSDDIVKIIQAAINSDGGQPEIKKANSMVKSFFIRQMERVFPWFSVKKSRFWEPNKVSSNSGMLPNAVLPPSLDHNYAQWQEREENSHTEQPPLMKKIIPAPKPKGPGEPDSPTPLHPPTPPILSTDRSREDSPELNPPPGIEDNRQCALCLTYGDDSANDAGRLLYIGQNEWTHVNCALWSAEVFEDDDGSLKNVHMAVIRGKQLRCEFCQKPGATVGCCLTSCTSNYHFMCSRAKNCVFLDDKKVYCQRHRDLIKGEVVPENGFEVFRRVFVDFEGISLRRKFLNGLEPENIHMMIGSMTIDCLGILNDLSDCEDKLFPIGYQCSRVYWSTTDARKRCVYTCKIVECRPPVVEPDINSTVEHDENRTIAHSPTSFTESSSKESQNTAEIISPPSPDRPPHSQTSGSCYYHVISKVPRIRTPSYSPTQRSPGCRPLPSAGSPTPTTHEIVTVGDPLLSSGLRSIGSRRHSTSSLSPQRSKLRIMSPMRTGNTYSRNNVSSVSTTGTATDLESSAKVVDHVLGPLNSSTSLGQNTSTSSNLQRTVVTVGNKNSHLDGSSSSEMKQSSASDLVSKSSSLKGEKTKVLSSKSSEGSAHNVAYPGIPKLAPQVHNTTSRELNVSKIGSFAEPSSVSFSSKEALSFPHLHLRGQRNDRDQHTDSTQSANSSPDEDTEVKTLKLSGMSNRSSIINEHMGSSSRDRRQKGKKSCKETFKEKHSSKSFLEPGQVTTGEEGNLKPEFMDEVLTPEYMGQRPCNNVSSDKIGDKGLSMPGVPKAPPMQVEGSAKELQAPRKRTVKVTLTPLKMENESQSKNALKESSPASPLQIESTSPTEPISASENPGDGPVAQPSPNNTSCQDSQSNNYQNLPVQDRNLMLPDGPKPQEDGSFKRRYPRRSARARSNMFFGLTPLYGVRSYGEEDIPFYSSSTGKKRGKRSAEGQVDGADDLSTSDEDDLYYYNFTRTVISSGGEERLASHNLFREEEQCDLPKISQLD
Histone-lysine N-methyltransferase 2A, sequence (Q03164 2719-3969 limits assumed): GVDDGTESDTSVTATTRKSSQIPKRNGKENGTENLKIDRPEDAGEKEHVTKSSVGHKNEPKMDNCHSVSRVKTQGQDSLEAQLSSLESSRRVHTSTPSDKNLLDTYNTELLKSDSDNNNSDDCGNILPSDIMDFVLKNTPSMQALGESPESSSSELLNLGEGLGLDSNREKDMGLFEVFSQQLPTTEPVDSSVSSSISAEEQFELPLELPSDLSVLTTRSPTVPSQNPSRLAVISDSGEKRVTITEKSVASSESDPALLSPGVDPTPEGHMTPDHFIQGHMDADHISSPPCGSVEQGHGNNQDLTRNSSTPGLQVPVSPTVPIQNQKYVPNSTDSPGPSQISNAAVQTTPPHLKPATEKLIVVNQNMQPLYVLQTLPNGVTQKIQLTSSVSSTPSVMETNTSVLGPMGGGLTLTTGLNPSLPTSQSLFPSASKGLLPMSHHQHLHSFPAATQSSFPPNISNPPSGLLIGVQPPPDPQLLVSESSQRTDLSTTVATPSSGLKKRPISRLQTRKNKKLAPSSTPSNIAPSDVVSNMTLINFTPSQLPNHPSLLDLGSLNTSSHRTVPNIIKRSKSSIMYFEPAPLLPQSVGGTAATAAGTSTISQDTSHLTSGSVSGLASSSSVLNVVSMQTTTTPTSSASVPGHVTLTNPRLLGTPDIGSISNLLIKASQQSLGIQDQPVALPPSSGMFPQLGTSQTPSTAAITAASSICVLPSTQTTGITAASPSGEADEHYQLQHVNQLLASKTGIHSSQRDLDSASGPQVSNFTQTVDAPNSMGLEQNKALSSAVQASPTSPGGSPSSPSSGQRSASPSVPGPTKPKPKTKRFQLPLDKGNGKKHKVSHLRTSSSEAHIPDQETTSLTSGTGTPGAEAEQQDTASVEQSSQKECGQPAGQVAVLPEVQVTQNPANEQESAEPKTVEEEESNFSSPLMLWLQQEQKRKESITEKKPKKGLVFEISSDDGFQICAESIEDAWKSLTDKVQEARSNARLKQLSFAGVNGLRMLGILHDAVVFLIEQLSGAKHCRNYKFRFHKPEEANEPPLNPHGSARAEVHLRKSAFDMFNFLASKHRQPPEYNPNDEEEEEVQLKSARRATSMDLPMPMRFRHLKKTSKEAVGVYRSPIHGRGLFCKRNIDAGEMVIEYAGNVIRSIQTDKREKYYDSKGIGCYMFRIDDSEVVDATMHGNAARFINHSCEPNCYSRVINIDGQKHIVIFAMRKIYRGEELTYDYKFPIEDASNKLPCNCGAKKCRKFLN

SMILES: CCC(C)C(NC(=O)C(C)NC(=O)[C@H](CC(C)C)NC(=O)[C@H](CCC(N)=O)NC(=O)[C@H](CCC(=O)O)NC(=O)CNC(=O)CNC(C)=O)C(N)=O (stereo partly drawn) (Ac-GGEQL[ξA][ξI]-NH2)
- Kd [1]: 0.018 µM

SMILES: Fc1ccc(-c2cn(CSc3ccccc3)nn2)c(F)c1
- IC50 [2]: > 0.1 µM

SMILES: C[C@](O)(c1ccccc1)c1cn(C[C@H](NC(=O)OCC2c3ccccc3-c3ccccc32)C(=O)O)nn1
- IC50 [2]: 0.00577 µM

SMILES: O=C(N[C@@H](Cn1cc(-c2ccccc2)nn1)C(=O)O)OCC1c2ccccc2-c2ccccc21
- IC50 [2]: 0.00246 µM

SMILES: COc1ccc([C@H](C)N2CC(=O)N[C@H](C)C(=O)N(CCc3ccccc3Oc3ccccc3)CC(=O)N(c3cc(OC)cc(OC)c3)CC(=O)N(CCCOC(C)C)CC(=O)N([C@@H](C)c3ccc(OC)cc3)CC2=O)cc1 (cyclo([dA][N(2-(2-PhOPh)Et)Gly][Gly(N-3,5-(OMe)2-Ph)][N((CH2)3OiPr)Gly][X2][X2]))
- IC50 [3]: 5.44 µM
- IC50 [4]: 0.105 µM

SMILES: C[C@](O)(c1cccc(F)c1)c1cn(C2O[C@H](CO)[C@@H](O)[C@H](O)[C@H]2O)nn1 (stereo partly drawn)
- IC50 [2]: 0.00024 µM

SMILES: Cc1cn([C@H]2C[C@H](n3cc([C@]4(O)CC[C@H]5[C@@H]6CCc7cc(O)ccc7[C@H]6CC[C@@]54C)nn3)[C@@H](CO)O2)c(=O)[nH]c1=O
- IC50 [2]: 0.0124 µM

SMILES: CC(=O)N[C@@H]1C(n2cc([C@@](C)(O)c3cccc(F)c3)nn2)O[C@H](COCc2ccccc2)[C@H](OCc2ccccc2)[C@@H]1OCc1ccccc1 (stereo partly drawn)
- IC50 [2]: 0.0224 µM
- Kd (Heat shock protein HSP90): 21.1 µM

SMILES: C[C@](O)(c1cccc(F)c1)c1cn(CSc2ccccc2)nn1
- IC50 [2]: 0.008 µM

SMILES: CC(=O)N[C@@H]1C(n2cc(-c3ccc(F)cc3F)nn2)O[C@H](COCc2ccccc2)[C@H](OCc2ccccc2)[C@@H]1OCc1ccccc1 (stereo partly drawn)
- IC50 [2]: > 0.1 µM

SMILES: OC[C@H]1OC(n2cc(-c3ccc(F)cc3F)nn2)[C@H](O)[C@@H](O)[C@@H]1O (stereo partly drawn)
- IC50 [2]: 0.0001 µM

SMILES: CC[C@H](C)[C@H](NC(=O)[C@H](CC(=O)O)NC(=O)[C@H](CO)NC(=O)CCNC(=S)Nc1ccc(-c2c3ccc(=O)cc-3oc3cc(O)ccc23)c(C(=O)O)c1)C(=O)N[C@@H](CCSC)C(=O)N[C@@H](CC(=O)O)C(=O)N[C@@H](Cc1ccccc1)C(=O)N[C@H](C(=O)N[C@@H](CC(C)C)C(=O)N[C@@H](CCCCN)C(=O)N[C@@H](CC(N)=O)C(=O)N[C@H](C(=O)N1CCC[C@H]1C(N)=O)[C@@H](C)O)C(C)C ({X1-βAla}-SDIMDFVLKNTP-NH2)
- Kd [5]: > 100 µM
- Ki [5]: > 1000 µM

SMILES: O=C(N[C@@H](Cn1cc(-c2ccc(F)cc2F)nn1)C(=O)O)OCC1c2ccccc2-c2ccccc21
- IC50 [2]: 0.00174 µM

SMILES: C[C@H](NC(=O)OCc1ccccc1)C(=O)NCC(=O)N[C@@H](CCC(=O)O)C(=O)N[C@@H](C)C(=O)N[C@@H](CC1CCCC1)C(=O)N[C@@H](Cc1ccc(O)cc1)C(=O)N[C@@H](CCC(=O)O)C(N)=O (Cbz-AGEA[Ala(cPent)]YE-NH2)
- Ki [6]: 0.015 µM

SMILES: COCCN1CC(=O)N(CCc2ccc(OC)cc2)CC(=O)N(c2cc(OC)cc(OC)c2)CC(=O)N(C(C)c2ccc(OC)cc2)CC(=O)N(C(C)c2ccc(OC)cc2)CC(=O)N[C@H](C)C1=O (stereo partly drawn)
- deltaG [7]: -15.9 kcal/mol
